Reference: patent US20050059072A1, “Selective modulation of TLR gene expression” (3M Innovative Properties Company, priority 2003, published 2005)
Entries after “also recorded” stand apart in the source; their conditions may differ.

Assays:
[1] = system: TLR8 gene; assay: TLR8 gene expression in PBMCs (real-time PCR); assay type: cell-based, Human; conditions: in vitro (FIG. 1, FIG. 4)
Experimental: (§1) For some experiments, Peripheral Blood Mononuclear Cells (PBMCs) were isolated from donors by Ficol gradient centrifugation. For other experiments, leukophoresed mononuclear cells were obtained from AllCells, LLC (Berkeley, Calif.). Monocyte derived macrophages and dendritic cells were prepared from PBMCs using positive selection of CD14+ cells with Miltenyi micro beads (Miltenyi Biotec Inc., Auburn, Calif.). Dendritic cells were differentiated in RPMI 1640 with 10% fetal bovine serum, using 33 ng/mL IL4 and 66 ng/mL GM-CSF, and macrophages were differentiated using 25 ng/mL M-CSF, for seven days at 37° C.
(§2) IRM compounds were prepared as 1000× stocks in DMSO. PBMCs were diluted to approximately 3.0×10^6 cells per mL in Ex-Vivo 20 media, and 1.0 mL was distributed per well in a 96 deep well plate. Cells were allowed to equilibrate at 37° C. for 1 hour, then IRM compound was added to the culture.
(§3) At each indicated time point, cells were harvested as follows. PBMCs and dendritic cells were harvested by centrifuging the plate at 1500 RPM, 360 RCF, at 4° C. in a Qiagen SIGMA centrifuge (Qiagen Inc., Valencia, Calif.). The media was then vacuum aspirated and 400 μL of RLT buffer with 1.0% 2-mercaptoethanol was added to each well. Macrophage cultures were harvested by aspiration of the media and direct addition of the RLT buffer to the well. The total RNA was purified using a semi-automated procedure on the Qiagen BioRobot 8000 (Qiagen Inc., Valencia, Calif.), with an incorporated DNase digestion step.
(§4) Purified total RNA was transferred to Costar 3565 plate and the optical density at 260 nm and 280 nm was read using a Molecular Devices SpectroMax 384 Plus (Molecular Devices Corp., Sunnyvale, Calif.). The RNA was then ethanol precipitated, washed, and the pellet re-suspended in 10 μL of water. cDNA was made with the Invitrogen Superscript II Kit (Invitrogen Corp., Carlsbad, Calif.) using random priming and 2-3 μg of total RNA. PCR was performed using an ABI 7900 (Applied Biosystems Corp., Foster City, Calif.), and the 384 well Microfluidic Card with Taqman™ chemistry, and the reactions were standardized using 2 ng/μL cDNA in the master mix. Cycling conditions were 50° C. for 10 minutes, 95° C. for 2 minutes, then 35 cycles of 95° C. for 30 seconds, and 60° C. for 1 minute. Data was analyzed using SDS 2.0 software (Applied Biosystems, Inc.) using a threshold value of 0.1. The results were imported into Excel and the expression fold changes were calculated using the ΔΔCt method, (User Bulletin #2, PE Applied BioSystems, Inc.). Normalization of signals was performed using the housekeeping gene, GAPDH.

[2] = system: TLR3 gene; assay: TLR3 gene expression in PBMCs (real-time PCR); assay type: cell-based, Human; conditions: in vitro (FIG. 1, FIG. 2)
Experimental: as §1, §2, §3, §4

[3] = system: TLR3 gene; assay: TLR3 gene expression in macrophages (real-time PCR); assay type: cell-based, Human; conditions: macrophages (FIG. 5)
Experimental: as §1, with “Calif.).” for “Calif.). Dendritic cells were differentiated in RPMI 1640 with 10% fetal bovine serum, using 33 ng/mL IL4 and 66 ng/mL GM-CSF, and macrophages were differentiated using 25 ng/mL M-CSF, for seven days at 37° C.”
as §2, §3
(§5) The RNA was then ethanol precipitated, washed, and the pellet re-suspended in 10 μL of water. cDNA was made with the Invitrogen Superscript II Kit (Invitrogen Corp., Carlsbad, Calif.) using random priming and 2-3 μg of total RNA. PCR was performed using an ABI 7900 (Applied Biosystems Corp., Foster City, Calif.), and the 384 well Microfluidic Card with Taqman™ chemistry, and the reactions were standardized using 2 ng/μL cDNA in the master mix. […] Data was analyzed using SDS 2.0 software (Applied Biosystems, Inc.) using a threshold value of 0.1. The results were imported into Excel and the expression fold changes were calculated using the ΔΔCt method, (User Bulletin #2, PE Applied BioSystems, Inc.). […]

[4] = system: TLR7; assay: TLR7 expression in actinic keratosis lesion biopsies, phase II study; assay type: in vivo, human; conditions: AK lesion, 5% cream (ALDARA) 3 times per week for 4 weeks; highest response time point vs sun-unexposed non-AK skin
Text: (§6) A phase II, double-blind, vehicle-controlled, randomized, parallel group study included 17 male subjects with histologically confirmed actinic keratosis (AK). Eligible subjects were randomized to receive either IRM5 formulated as a 5% cream (ALDARA, 3M Pharmaceuticals, St. Paul, Minn.) or vehicle cream in a 3:1 ratio. Study subjects had at least five clinically typical, discrete, visible AK lesions within a 25 cm^2 area on the balding scalp that were suitable for shave biopsies.
(§7) Subjects applied 1 sachet (250 mg) of study cream to the treatment area 3 times per week for 4 weeks. Each dose of study cream was applied prior to normal sleeping hours at approximately the same time on each dosing day and was to remain on the skin for approximately 8 hours.
(§8) Each subject could have up to 8 shave biopsies performed. Biopsy samples obtained at the treatment initiation visit and all subsequent visits were designated for gene expression analysis. At the treatment initiation visit (T=0), an intact lesion in the treatment area was biopsied (sample series A) to establish a baseline for AK gene expression. […] The sun-unexposed area biopsy was used to establish baseline control for gene expression. […]
(§9) RNA from each sample was extracted and expression of TLR1, TLR3, TLR6, TLR7, TLR8, TLR9, and TLR10 was analyzed as described in Example 1. […]

[5] = system: TLR9; assay: TLR9 expression in actinic keratosis lesion biopsies, phase II study; assay type: in vivo, human; conditions: AK lesion, 5% cream (ALDARA) 3 times per week for 4 weeks; highest response time point vs sun-unexposed non-AK skin
Text: as §6, §7, §8, §9

[6] = system: TLR3; assay: TLR3 expression in actinic keratosis lesion biopsies, phase II study; assay type: in vivo, human; conditions: AK lesion, 5% cream (ALDARA) 3 times per week for 4 weeks; highest response time point vs sun-unexposed non-AK skin
Text: as §6, §7, §8, §9

[7] = system: TLR10; assay: TLR10 expression in actinic keratosis lesion biopsies, phase II study; assay type: in vivo, human; conditions: AK lesion, 5% cream (ALDARA) 3 times per week for 4 weeks; highest response time point vs sun-unexposed non-AK skin
Text: as §6, §7, §8, §9

[8] = system: TLR8; assay: TLR8 expression in actinic keratosis lesion biopsies, phase II study; assay type: in vivo, human; conditions: AK lesion, 5% cream (ALDARA) 3 times per week for 4 weeks; highest response time point vs sun-unexposed non-AK skin
Text: as §6, §7, §8, §9

[9] = system: TLR1; assay: TLR1 expression in actinic keratosis lesion biopsies, phase II study; assay type: in vivo, human; conditions: AK lesion, 5% cream (ALDARA) 3 times per week for 4 weeks; highest response time point vs sun-unexposed non-AK skin
Text: as §6, §7, §8, §9

[10] = system: TLR6; assay: TLR6 expression in actinic keratosis lesion biopsies, phase II study; assay type: in vivo, human; conditions: AK lesion, 5% cream (ALDARA) 3 times per week for 4 weeks; highest response time point vs sun-unexposed non-AK skin
Text: as §6, §7, §8, §9

[11] = system: TLR5 gene; assay: TLR5 gene expression in macrophages (real-time PCR); assay type: cell-based, Human; conditions: macrophages (FIG. 6)
Experimental: as §1, with “Calif.).” for “Calif.). Dendritic cells were differentiated in RPMI 1640 with 10% fetal bovine serum, using 33 ng/mL IL4 and 66 ng/mL GM-CSF, and macrophages were differentiated using 25 ng/mL M-CSF, for seven days at 37° C.”
as §2
(§10) At each indicated time point, cells were harvested as follows. […]
as §5, with “RNA.” for “RNA. PCR was performed using an ABI 7900 (Applied Biosystems Corp., Foster City, Calif.), and the 384 well Microfluidic Card with Taqman™ chemistry, and the reactions were standardized using 2 ng/μL cDNA in the master mix.”

[12] = system: TLR6; assay: TLR6 gene expression in dendritic cells (real-time PCR); assay type: cell-based, Human
Experimental: as §1
(§11) IRM compounds were prepared as 1000× stocks in DMSO. PBMCs were diluted to approximately 3.0×10^6 cells per mL in Ex-Vivo 20 media, and 1.0 mL was distributed per well in a 96 deep well plate. Cells were allowed to equilibrate at 37° C. for 1 hour, then IRM compound was added to the culture. […]
(§12) Purified total RNA was transferred to Costar 3565 plate and the optical density at 260 nm and 280 nm was read using a Molecular Devices SpectroMax 384 Plus (Molecular Devices Corp., Sunnyvale, Calif.). […] Data was analyzed using SDS 2.0 software (Applied Biosystems, Inc.) using a threshold value of 0.1. The results were imported into Excel and the expression fold changes were calculated using the ΔΔCt method, (User Bulletin #2, PE Applied BioSystems, Inc.). […]

[13] = system: TLR7 gene; assay: TLR7 gene expression in macrophages (real-time PCR); assay type: cell-based, Human; conditions: macrophages (FIG. 7)
Experimental: as §1, with “Calif.).” for “Calif.). Dendritic cells were differentiated in RPMI 1640 with 10% fetal bovine serum, using 33 ng/mL IL4 and 66 ng/mL GM-CSF, and macrophages were differentiated using 25 ng/mL M-CSF, for seven days at 37° C.”
as §2, §10
as §5, with “RNA.” for “RNA. PCR was performed using an ABI 7900 (Applied Biosystems Corp., Foster City, Calif.), and the 384 well Microfluidic Card with Taqman™ chemistry, and the reactions were standardized using 2 ng/μL cDNA in the master mix.”

[14] = system: TLR7; assay: TLR7 gene expression in dendritic cells (real-time PCR); assay type: cell-based, Human
Experimental: as §1, §11, §12

[15] = system: TLR7 gene; assay: TLR7 gene expression in PBMCs (real-time PCR); assay type: cell-based, Human; conditions: in vitro (FIG. 1, FIG. 3)
Experimental: as §1, §11, §12

Cc1nc2c(N)nc3cccnc3c2n1CC(C)C [IRM8, 2-methyl-1-(2-methylpropyl)-1H-imidazo[4,5-c][1,5]naphthyridin-4-amine]
modulation of TLR8 gene expression [1]: higher and earlier peaks of gene expression

CCCCc1nc2c(N)nc3ccccc3c2n1CCCCNS(C)(=O)=O [IRM3, N-[4-(4-amino-2-butyl-1H-imidazo[4,5-c]quinolin-1-yl)butyl]methanesulfonamide]
modulation of TLR3 gene expression [2]: upregulate gene expression | modulation of TLR3 gene expression [3]: do not significantly modulate gene expression

CC(C)Cn1cnc2c(N)nc3ccccc3c21 [IRM5, 1-(2-methylpropyl)-1H-imidazo[4,5-c]quinolin-4-amine]
modulation of TLR3 gene expression [2]: upregulate gene expression | Median Fold Change - IRM5-treated (IRM-treated/Series C), TLR7 [4]: 4.9 fold | Median Fold Change - IRM5-treated (IRM-treated/Series C), TLR9 [5]: 15.2 fold | modulation of TLR3 gene expression [3]: do not significantly modulate gene expression | Median Fold Change - IRM5-treated (IRM-treated/Series C), TLR3 [6]: 1.5 fold | Median Fold Change - IRM5-treated (IRM-treated/Series C), TLR10 [7]: 3.6 fold | Median Fold Change - IRM5-treated (IRM-treated/Series C), TLR8 [8]: 2.4 fold | Median Fold Change - IRM5-treated (IRM-treated/Series C), TLR1 [9]: 2.1 fold | Median Fold Change - IRM5-treated (IRM-treated/Series C), TLR6 [10]: 1.9 fold

CCOCc1nc2c(N)nc3c(c2n1CC(C)(C)O)CCCC3 [IRM1, 4-amino-2-(ethoxymethyl)-α,α-dimethyl-6,7,8,9-tetrahydro-1H-imidazo[4,5-c]quinoline-1-ethanol]
modulation of TLR5 gene expression [11]: downregulated | modulation of expression from TLR6 [12]: may downregulate expression | modulation of TLR3 gene expression [2]: upregulates gene expression | modulation of TLR7 gene expression [13]: downregulated | modulation of TLR3 gene expression [3]: downregulated; also recorded: downregulates gene expression | modulation of expression from TLR7 [14]: may downregulate expression | modulation of TLR8 gene expression [1]: higher and earlier peaks of gene expression

Cc1nc2c(N)nc3ccccc3c2n1CC(C)(C)O [IRM6, 4-amino-α,α,2-trimethyl-1H-imidazo[4,5-c]quinoline-1-ethanol]
modulation of TLR8 gene expression [1]: higher and earlier peaks of gene expression

CC(C)Cn1cnc2c(N)nc3cccnc3c21 [IRM7, 1-(2-methylpropyl)-1H-imidazo[4,5-c][1,5]naphthyridin-4-amine]
modulation of TLR3 gene expression [2]: little effect on gene expression | modulation of TLR8 gene expression [1]: little effect on gene expression | modulation of TLR7 gene expression [15]: little effect on gene expression
